Laboratory results reported in patent publication US20230226074A1, “METHODS OF USE FOR PYRIMIDINES AS FERROPORTIN INHIBITORS” (Global Blood Therapeutics, Inc., priority 2020, published 2023).

Biological target: T1, human ferroportin (Homo sapiens, UniProt Q9NP59)
T1 construct: luciferase reporter (probably NanoLuc, inferred from the Nano-Glo Luciferase Assay System read-out); expressed in transfected cells; host or cells: CHO cells, stably transfected, expression induced with doxycycline
T1 sequence (Q9NP59 1-571): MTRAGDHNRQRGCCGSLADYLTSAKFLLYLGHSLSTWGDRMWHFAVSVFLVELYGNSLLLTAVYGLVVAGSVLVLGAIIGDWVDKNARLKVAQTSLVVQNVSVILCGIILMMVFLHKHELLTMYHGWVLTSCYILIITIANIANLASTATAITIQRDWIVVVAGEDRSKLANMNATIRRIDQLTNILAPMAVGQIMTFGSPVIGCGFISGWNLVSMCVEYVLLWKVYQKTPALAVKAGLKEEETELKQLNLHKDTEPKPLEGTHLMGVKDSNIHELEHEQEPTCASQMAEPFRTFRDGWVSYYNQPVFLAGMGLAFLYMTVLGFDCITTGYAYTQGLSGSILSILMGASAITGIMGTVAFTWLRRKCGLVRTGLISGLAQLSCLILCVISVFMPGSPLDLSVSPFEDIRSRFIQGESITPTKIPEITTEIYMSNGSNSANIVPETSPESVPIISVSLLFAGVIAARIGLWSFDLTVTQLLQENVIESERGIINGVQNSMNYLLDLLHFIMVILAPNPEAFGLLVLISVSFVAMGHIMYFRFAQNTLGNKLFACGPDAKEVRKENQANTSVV
Experiment: In-vitro ferroportin internalization assay (luciferase reporter)
Type: cell-based
Settings: average pEC50; stably-transfected CHO cell line expressing human ferroportin tagged to a luciferase reporter; 6 h incubation with test compound
Protocol: The protocol for this assay is generally as described in WO2018/128828, incorporated herein by reference in its entirety. Functional internalization of ferroportin protein was measured using a stably-transfected CHO cell line expressing the human ferroportin tagged to a luciferase reporter. Cells were plated for 24 h in the presence of ferric ammonium citrate (FAC). Ferroportin protein expression was induced with doxycycline for 24 h. The next day, the compounds were added. Test compounds were dissolved in DMSO. Cells were incubated with the test compounds for 6 h, and subsequently luciferase activity was measured using the Nano-Glo Luciferase Assay System and Glomax (Promega, Madison, Wis.). The average pEC50 was determined for the test compounds.

| Compound | pEC50 |
| --- | --- |
| Cc1cc(NC(=O)CN(C)c2nc(-c3ccccn3)nc3scc(-c4ccccc4)c23)no1 [Compound 238, N-(5-methyl-1,2-oxazol-3-yl)-2-{methyl[5-phenyl-2-(pyridin-2-yl)thieno[2,3-d]pyrimidin-4-yl]amino}acetamide] | 6.3 |
| CNC(=O)CN(C)c1nc(-c2ccccn2)nc2sc(-c3ccccc3)cc12 [Compound 239, N-methyl-2-{methyl[6-phenyl-2-(pyridin-2-yl)thieno[2,3-d]pyrimidin-4-yl]amino}acetamide] | 5.8 |
| CCNC(=O)CN(C)c1nc(-c2ccccn2)nc2sc(-c3ccccc3)cc12 [Compound 240, N-ethyl-2-{methyl[6-phenyl-2-(pyridin-2-yl)thieno[2,3-d]pyrimidin-4-yl]amino}acetamide] | <5.0 |
| COCCNc1nc(-c2ccccn2)nc2sc(C)c(C)c12 [Compound 241, N-(2-methoxyethyl)-5,6-dimethyl-2-(pyridin-2-yl)thieno[2,3-d]pyrimidin-4-amine] | 6.3 |
| Cc1sc2nc(-c3ccccn3)nc(N(C)CC(=O)Nc3cccc(F)c3)c2c1C [Compound 242, 2-{[5,6-dimethyl-2-(pyridin-2-yl)thieno[2,3-d]pyrimidin-4-yl](methyl)amino}-N-(3-fluorophenyl)acetamide] | 7 |
| Cc1sc2nc(-c3ccccn3)nc(NCCNc3ccccn3)c2c1C [Compound 243, N2-[5,6-dimethyl-2-(pyridin-2-yl)thieno[2,3-d]pyrimidin-4-yl]-N1-(pyridin-2-yl)ethane-1,2-diamine] | 6.4 |
| CCN(CCO)c1nc(-c2ccccn2)nc2sc(C)c(-c3ccccc3)c12 [Compound 244, 2-{ethyl[6-methyl-5-phenyl-2-(pyridin-2-yl)thieno[2,3-d]pyrimidin-4-yl]amino}ethan-1-ol] | 5.4 |
| CC1CC(=O)NCCN1c1nc(-c2ccccn2)nc2scc(-c3ccccc3)c12 (centres unmarked) [Compound 245, 7-methyl-1-[5-phenyl-2-(pyridin-2-yl)thieno[2,3-d]pyrimidin-4-yl]-1,4-diazepan-5-one] | 5.5 |
| CN(CCCc1n[nH]c(N)c1C#N)c1nc(-c2ccccn2)nc2scc(-c3ccccc3)c12 [Compound 246, 5-amino-3-(3-{methyl[5-phenyl-2-(pyridin-2-yl)thieno[2,3-d]pyrimidin-4-yl]amino}propyl)-1H-pyrazole-4-carbonitrile] | 6.2 |
| COc1ccc(NC(=O)[C@@H](C(C)C)N(C)c2nc(-c3ccccn3)nc3c2CCC3)cn1 [Compound 315, (2R)-N-(6-methoxypyridin-3-yl)-3-methyl-2-{methyl[2-(pyridin-2-yl)-5H,6H,7H-cyclopenta[d]pyrimidin-4-yl]amino}butanamide] | 7.3 |
| COc1ccc(NC(=O)CN(C)c2nc(-c3cc4cn[nH]c4cn3)nc3c2CCC3)nc1 [Compound 334, N-(5-methoxypyridin-2-yl)-2-[methyl(2-{1H-pyrazolo[3,4-c]pyridin-5-yl}-5H,6H,7H-cyclopenta[d]pyrimidin-4-yl)amino]acetamide] | 7.5 |
| CN(C)CCOc1ccnc(-c2nc3c(c(N(C)CC(=O)NC(C)(C)C)n2)CCC3)c1 [Compound 417, N-tert-butyl-2-[(2-{4-[2-(dimethylamino)ethoxy]pyridin-2-yl}-5H,6H,7H-cyclopenta[d]pyrimidin-4-yl)(methyl)amino]acetamide] | 7.7 |
| CN(CC(=O)N1CC2CC(C2)C1)c1nc(-c2cc(OCCO)ccn2)nc2c1CCC2 [Compound 433, 1-{3-azabicyclo[3.1.1]heptan-3-yl}-2-({2-[4-(2-hydroxyethoxy)pyridin-2-yl]-5H,6H,7H-cyclopenta[d]pyrimidin-4-yl}(methyl)amino)ethan-1-one] | 8.1 |
| CN(CC(=O)NC(C)(C)C)c1nc(-c2cc(OC[C@H](O)CO)ccn2)nc2c1CCC2 [Compound 484, N-tert-butyl-2-[(2-{4-[(2R)-2,3-dihydroxypropoxy]pyridin-2-yl}-5H,6H,7H-cyclopenta[d]pyrimidin-4-yl)(methyl)amino]acetamidede] | 7.7 |
